Source: article PMC10568017, “A quest for the stereo-electronic requirements for selective agonism for the neurotrophin receptors TrkA and TrkB in 17-spirocyclic-dehydroepiandrosterone derivatives” (Frontiers in Molecular Neuroscience, 2023)

Key:
[1] = molecular target: T1, TrkB (Mus musculus, UniProt P15209); assay: TrkB phosphorylation assay in primary astrocytes (Western blot); type: cell-based; conditions: compound 1 μM, 20 min, after 6 h serum starvation, BDNF 500 ng/mL as control
T1 construct: primary cortical astrocytes from 2-day-old mice (as a natively TrkB-expressing neuronal population); endogenous in cells; host or cells: primary cortical astrocytes from C57B/6 mouse pups (P2)
Procedure: We tested compounds on three cellular systems, primary cortical astrocytes from 2-day-old mice (as a natively TrkB-expressing neuronal population), and NIH-3T3 fibroblasts stable transfected with TrkB and NIH-3T3 naïve cells. Cells were grown with high-glucose DMEM medium supplemented with 10% fetal bovine serum (FBS), 100 μg/mL streptomycin, and 100 units/mL penicillin at 37°C in a humidified 5% CO2 atmosphere. Phosphorylation results presented here are in primary astrocytes, and cell toxicity assay results are in NIH-3T3 stable transfected cells with TrkB.
Cells were plated in 12 well plates, at a density of 100,000 cells per well, with 6 h of serum deprivation carried out on the following day. To assess the effect of compounds on TrkB phosphorylation, 20-min treatments were applied, using either BDNF at 500 ng/mL (Peprotech 450-02) (positive control) or compounds at 1 μM.
Cell lysis for 10 min was carried out on ice using the Pierce IP Lysis Buffer by Thermo Scientific and a phospho-protease inhibitor cocktail by Millipore. After adding loading buffer (5 × Laemni), 25 μg from each protein sample were incubated for 5 min at 95°C and subjected to SDS-PAGE. Proteins were transferred to a nitrocellulose membrane at 350 mA for 2 h. Membrane blocking was performed using 5% bovine serum albumin (BSA) at room temperature for 1 h, before adding the primary antibodies to the blocking solution at 4°C overnight. HRP-conjugated secondary antibodies were used for the detection of chemiluminescence with ECL solution. Primary antibodies: Phospho-TrkB (Tyr816) Millipore # ABN1381, and Anti-TrkB Abcam #ab33655.
Mixed glial cultures were isolated from the cortex of C57B/6 pups at post-natal day 2 (P2). Cells were plated in a medium containing high-glucose DMEM, 200 U/mL penicillin, 200 μg/mL streptomycin, and 10% fetal bovine serum (FBS). When cells reach 100% confluency (7–8 days), the anti-mitotic agent Ara-C was added in the media at a final concentration of 10 μM, for 3 to 4 days to target the highly proliferative microglial cells. Ara-C was removed, and primary astrocytes (97% purity) were cultured at 5% CO2 and 37°C.
Cells were plated at 70–80% confluency. The next day, they were deprived of serum for 6 h and subsequently treated with 500 ng/mL BDNF or 1 μM of compounds for 20 min. Cells were then lysed in Pierce™ IP Lysis Buffer (87788, Thermo Fischer Scientific, Rockford, USA), containing proteases (539138, Calbiochem, Darmstadt, Germany), and phosphatase inhibitors (524629, Calbiochem, Darmstadt, Germany). Lysates were then suspended in an SDS loading buffer and subjected to Western blot against phosphorylated TrkB (1:1,000, ABN1381, Sigma-Aldrich, St. Louis, MO, USA) and total TrkB (1:1,000, 07-225-I, Sigma-Aldrich, St. Louis, MO, USA).

[2] = Metabolic stability in pooled human liver microsomes; type: in vitro ADME; conditions: 1 μM
How it was run: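 Test compounds at 1 µM incubated in triplicate with pooled human liver microsomes (0.5 mg/mL) and ~1 mM NADPH at 37 °C, stopped after 60 min. Parent loss classed very slow (<5%) to very fast (>80%); metabolism rated high, moderate or low by t1/2 cut-offs of 30 and 60 min.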

T1 sequence (P15209 32-821): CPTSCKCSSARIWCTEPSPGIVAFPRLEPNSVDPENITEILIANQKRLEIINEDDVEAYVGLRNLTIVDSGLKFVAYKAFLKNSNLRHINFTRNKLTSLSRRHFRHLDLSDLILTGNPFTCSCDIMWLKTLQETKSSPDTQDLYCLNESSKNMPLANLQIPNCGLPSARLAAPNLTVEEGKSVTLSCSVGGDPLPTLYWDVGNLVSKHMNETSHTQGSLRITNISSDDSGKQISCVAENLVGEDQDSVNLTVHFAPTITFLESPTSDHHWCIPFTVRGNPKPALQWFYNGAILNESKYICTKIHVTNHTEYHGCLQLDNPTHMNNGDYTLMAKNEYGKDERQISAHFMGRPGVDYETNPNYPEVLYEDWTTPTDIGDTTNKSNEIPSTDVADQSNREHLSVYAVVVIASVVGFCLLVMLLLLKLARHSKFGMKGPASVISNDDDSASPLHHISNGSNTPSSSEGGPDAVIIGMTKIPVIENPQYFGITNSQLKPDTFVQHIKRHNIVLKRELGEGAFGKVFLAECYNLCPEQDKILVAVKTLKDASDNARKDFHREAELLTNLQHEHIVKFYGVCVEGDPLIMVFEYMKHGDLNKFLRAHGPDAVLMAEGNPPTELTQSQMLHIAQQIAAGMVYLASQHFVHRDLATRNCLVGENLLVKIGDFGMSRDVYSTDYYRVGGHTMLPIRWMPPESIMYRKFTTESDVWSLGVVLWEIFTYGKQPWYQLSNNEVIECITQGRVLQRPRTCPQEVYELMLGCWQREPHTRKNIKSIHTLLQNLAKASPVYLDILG

## C[C@]12CC[C@H](O)CC1=CC[C@@H]1[C@@H]2CC[C@@]2(C)[C@H]1CC[C@@]21CC=C(Cn2cc(Cc3ccccc3)nn2)CO1 [ENT-A055, (3S,17R)-5′-[(4-benzyl-1H-1,2,3-triazol-1-yl)methyl]-3′,6′-dihydrospiro[5-androstene-17,2′-pyran]-3-ol]
[1]
  phosphorylation levels of the TrkB receptor: successfully increased phosphorylation levels of the TrkB receptor compared to the untreated control
[2]; pooled human liver microsomes 0.5 mg/mL, t = 60 min, NADPH
  residual of time zero: > 95%
[2]; pooled human liver microsomes, 60 min
  parent structure loss (depletion) class: very slow (very slow (<5%))
